Two compounds from ChEMBL document CHEMBL1125105, “Synthesis of 1-methyl-5-(3-azido-2,3-dideoxy-beta-D-erythro-pentofuranosyl)uracil and 1-methyl-5-(3-azido-2,3-dideoxy-2-fluoro-beta-D-arabinofuranosyl)uracil. The C-nucleoside isostere of 3'-azido-3'-deoxythymidine and its 2'-"up"-fluoro analogue” (J Med Chem, 1990) can be followed below.

The test system of the assay is H9. Kind of assay: Compound was found to have no significant inhibitory activity against HIV in H9 cells. It is filed as functional, cell-based. The following applies: Homo sapiens.

On to `Cc1cn(C2CC(CO)C(O)C2F)c(=O)[nH]c1=O` (configuration not stated), for which the Activity result is “No significant inhibitory activity against HIV in H9 cells”.

For `Cn1cc([C@H]2C[C@H](N=[N+]=[N-])[C@@H](CO)O2)c(=O)[nH]c1=O`, the Activity entry is “No significant inhibitory activity against HIV in H9 cells”.
